Holding throughout (type): cell-based
In experiment [1] the test system is human breast cancer cell line T-47D. As to the kind of experiment: Inhibition of cell proliferation (GI50), T47D. The settings on record: Homo sapiens; T47D cells, 48 h, CellTiter-Glo. The essentials: (§1)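 Cells at 4.4×10^4 cells/mL were exposed to test compound (1 nM to 10 μM final) in RPMI-1640 with DMSO for 48 h at 37 °C, 5% CO2. Viability was read by CellTiter-Glo luminescence. GI50 is where (Ltest−LStart)/(LMax−LStart)=0.5, with LStart a 0.5 h baseline and LMax untreated cells.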

Experiment [2] concerns human Burkitt's lymphoma cell line Namalwa. As to the kind of experiment: Caspase cascade activation (EC50), Namalwa. The settings on record: Homo sapiens, Burkitts lymphoma cell; Namalwa cells; caspase cascade activation; read-out: caspase potency (EC50) Namalwa. The essentials:
(§2)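 Test compound (0.016–10 μM final) is incubated with cells for 48 h at 37 °C. Caspase-3-like activity is measured by 3 h room-temperature cleavage of DEVD-R110 in PIPES pH 7.2 lysis buffer, with EC50 from sigmoidal fitting of background-corrected RFU relative to control.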

Experiment [3] deals with human B cell lymphoblastoid cell line Ramos. As to the kind of experiment: Inhibition of cell proliferation (GI50), Ramos. The settings on record: Homo sapiens; Ramos cells, 48 h, CellTiter-Glo. The essentials:
as §1
In general terms: ATP-based viability assays read luminescence as a measure of living cells.

For experiment [4], the system named is human breast cancer cell line T-47D. As to the kind of experiment: Caspase cascade activation (EC50), T-47D. The settings on record: Homo sapiens; T47D cells; caspase cascade activation; read-out: caspase potency (EC50) T47D. In a few lines:
as §2

Experiment [5] deals with human hepatocellular carcinoma cell line SNU398. As to the kind of experiment: Caspase cascade activation (EC50), SNU398. The settings on record: Homo sapiens, SNU-398; SNU398 cells; caspase cascade activation; read-out: caspase potency (EC50) SNU398. In a few lines:
as §2

For experiment [6], the system named is human lymphoma cell line Raji. As to the kind of experiment: Inhibition of cell proliferation (GI50), Raji. Conditions: Homo sapiens; Raji cells, 48 h, CellTiter-Glo. In a few lines: as §1
Experiment [7] deals with human colon carcinoma cell line HCT116. As to the kind of experiment: Caspase cascade activation (EC50), HCT116. Conditions: Homo sapiens, HCT-116; HCT116 cells; caspase cascade activation; read-out: caspase potency (EC50) HCT116. In a few lines: as §2
In experiment [8] the test system is human Burkitt's lymphoma cell line Namalwa. As to the kind of experiment: Inhibition of cell proliferation (GI50), Namalwa. Conditions: Homo sapiens, Burkitts lymphoma cell; Namalwa cells, 48 h, CellTiter-Glo. In a few lines:
as §1

The subject of experiment [9] is human leukemia cell line K562. As to the kind of experiment: Inhibition of cell proliferation (GI50), K562. The settings on record: Homo sapiens; K562 cells, 48 h, CellTiter-Glo. The essentials:
as §1

The test system of experiment [10] is human lung cancer cell line H1299. As to the kind of experiment: Inhibition of cell proliferation (GI50), H1299. The settings on record: NCI-H1299, H1299 cells, 48 h, CellTiter-Glo. On the procedure: Human breast cancer cell lines T-47D, human hepatocellular carcinoma cell line SNU398, human colon carcinoma cell line HCT116, human lung cancer cell line H1299, human leukemia cell line K562, human lymphoma cell line Raji, human B cell lymphoblastoid cell line Ramos, and human Burkitt's lymphoma cell line Namalwa were grown and harvested as in Example 100. An aliquot of […] of cells (4.4×10^4 cells/mL) was added to a well of a 96-well microtiter plate containing 5 μL of a 10% DMSO in RPMI-1640 media solution containing 10 nM to 100 μM of 3-(2-chlorophenyl)-6-(3,4-methylenedioxyphenyl)-7H-[1,2,4]triazolo[3,4-b][1,3,4]thiadiazine (1 nM to 10 μM final). An aliquot of 45 μL of cells was added to a well of a 96-well microtiter plate containing 5 μL of a 10% DMSO in RPMI-1640 media solution without compound as the control sample for maximal cell proliferation (LMax). The samples were mixed by agitation and then incubated at 37° C. for 48 h in a 5% CO2-95% humidity incubator. After incubation, the samples were removed from the incubator and 25 μL of CellTiter-Glo™ reagent (Promega) was added. The samples were mixed by agitation and incubated at room temperature for 10-15 min. Plates were then read using a luminescent plate reader (Model SPECTRAfluor Plus, Tecan) to give Ltest values.
The samples were mixed by agitation and then incubated at 37° C. for 0.5 h in a 5% CO2-95% humidity incubator. After incubation, the samples were removed from the incubator and 25 μL of CellTiter-Glo™ reagent (Promega) was added. The samples were mixed by agitation and incubated at […] 10-15 min at room temperature in a 5% CO2-95% humidity incubator. Fluorescence was read as above, (LStart) defining luminescence for initial cell number used as baseline in GI50 determinations.
Calculation: GI50 (dose for 50% inhibition of cell proliferation) is the concentration where [(Ltest−LStart)/(LMax−LStart)]=0.5.

Experiment [11] deals with human lymphoma cell line Raji. As to the kind of experiment: Caspase cascade activation (EC50), Raji. The settings on record: Homo sapiens, RAJI cells, read-out: caspase potency (EC50) RAJI. In a few lines:
as §2

Experiment [12] relates to human cancer cell line H1299. As to the kind of experiment: Caspase cascade activation (EC50), H1299. The settings on record: NCI-H1299, H1299 cells, read-out: caspase potency (EC50) H1299. In a few lines:
as §2

The subject of experiment [13] is human B cell lymphoblastoid cell line Ramos. As to the kind of experiment: Caspase cascade activation (EC50), Ramos. The settings on record: Homo sapiens, RAMOS cells, read-out: caspase potency (EC50) RAMOS. In a few lines:
as §2

Experiment [14] relates to human colon carcinoma cell line HCT116. As to the kind of experiment: Inhibition of cell proliferation (GI50), HCT116. The settings on record: Homo sapiens; HCT 116 cells, 48 h, CellTiter-Glo. The essentials:
as §1

This passage reports GI50 and EC50 results from US20080045514A1 (Cytovia, Inc., priority 2006, published 2008).

As a reminder, the GI50 is the concentration at which growth is held to half of that of the control. Lower therefore signals more potent growth inhibition. What is called EC50 is the concentration at which the effect is half-maximal. Consider `Clc1ccccc1-c1nnc2n1N=C(c1ccc3c(c1)OCO3)CS2` [Example P, 3-(2-chlorophenyl)-6-(3,4-methylenedioxyphenyl)-7H-[1,2,4]triazolo[3,4-b][1,3,4]thiadiazine], for which the GI50 in [1] was found to be 175 nM; in experiment [3], 118 nM; in [6] it was 426 nM; in experiment [8] it was 472 nM; in experiment [9], 214 nM; in experiment [10] it was 202 nM. The same compound displayed a GI50 in experiment [14] of 884 nM. The EC50 in experiment [2] was 123 nM; in experiment [4], 235 nM; in experiment [5], 189 nM; in [7], 231 nM; in experiment [11], 339 nM; in [12] it was 370 nM. The concentration for a half-maximal effect (EC50) in experiment [13] was 289 nM.

For the compound `COc1ccccc1-c1nnc2n1N=C(c1ccc(Br)cc1)CS2` [W, 3-(2-Methoxyphenyl)-6-(4-bromophenyl)-7H-[1,2,4]triazolo[3,4-b][1,3,4]thiadiazine], the GI50 in experiment [1] is 135 nM; in [3] it was 141 nM; in experiment [6], 299 nM; in experiment [8], 314 nM; in experiment [9], 178 nM; in experiment [10], 161 nM. This compound displayed a 50% growth inhibitory concentration (GI50) in [14] of 489 nM. Further, the EC50 in experiment [4] stood at 313 nM; in [5] it was 164 nM; in experiment [7], 243 nM; in experiment [11], 322 nM; in experiment [12], 552 nM; in [13], 175 nM.

Take `COc1ccc(C2=Nn3c(nnc3-c3ccccc3OC)SC2)cc1OC` [Example K1, 3-(2-Methoxyphenyl)-6-(3,4-dimethoxyphenyl)-7H-[1,2,4]triazolo[3,4-b][1,3,4]thiadiazine]: the concentration for 50% growth inhibition (GI50) in experiment [1] is 461 nM; in experiment [3] it was 41 nM; in experiment [6], 39 nM; in experiment [8] it was 38 nM; in experiment [9], 99 nM; in experiment [10], 191 nM. The compound further had a GI50 in experiment [14] of 253 nM. Also, the 50% effective concentration (EC50) in [2] was found to be 106 nM; in experiment [4] it was 506 nM; in experiment [5], 70 nM; in [7] it was 134 nM; in [11], 137 nM; in experiment [12] it was 374 nM. In addition, the EC50 in [13] is 88 nM.

As to `CCOc1cccc(-c2nnc3n2N=C(c2ccc(O)c(O)c2)CS3)c1` [Example C1, 3-(3-Ethoxyphenyl)-6-(3,4-dihydroxyphenyl)-7H-[1,2,4]triazolo[3,4-b][1,3,4]thiadiazine], the GI50 in [1] came to 1370 nM; in experiment [3], 1390 nM; in experiment [6] it was 2890 nM; in [8], 2870 nM; in experiment [9] it was 453 nM; in [10], 1010 nM. Moreover, the GI50 in [14] was found to be 2340 nM. The concentration for a half-maximal effect (EC50) in experiment [4] is 1320 nM; in experiment [5], 1220 nM; in experiment [7] it was > 10000 nM; in experiment [11] it was 706 nM; in [12] it was 1310 nM; in [13], 925 nM.

For `COc1ccc(C2=Nn3c(nnc3-c3ccccc3C)SC2)cc1OC` [K, 3-(2-Methylphenyl)-6-(3,4-dimethoxyphenyl)-7H-[1,2,4]triazolo[3,4-b][1,3,4]thiadiazine], the concentration for 50% growth inhibition (GI50) came to 2620 nM in experiment [1] and 667 nM in [10]. Moreover, the EC50 in experiment [2] was 267 nM; in [4], 5130 nM; in experiment [5] it was 316 nM; in experiment [7], 578 nM; in experiment [11], 479 nM; in experiment [12], 697 nM. In addition, the EC50 in experiment [13] is 272 nM.

As to `Cc1ccccc1-c1nnc2n1N=C(c1ccc3c(c1)OCO3)CS2` [Example M, 3-(2-Methylphenyl)-6-(3,4-methylenedioxyphenyl)-7H-[1,2,4]triazolo[3,4-b][1,3,4]thiadiazine], the GI50 in experiment [1] worked out at 124 nM; in experiment [3] it was 164 nM; in experiment [6], 2220 nM; in experiment [8], 122 nM; in experiment [9] it was 239 nM; in experiment [10], 214 nM. The GI50 in [14] stood at 825 nM. The EC50 in [2] amounted to 144 nM; in [4], 282 nM; in experiment [5], 254 nM; in experiment [7], 317 nM; in experiment [11] it was 399 nM; in [12], 420 nM. The EC50 in experiment [13] came to 452 nM.

As to `COc1ccc(C2=Nn3c(nnc3-c3ccc(Cl)cc3)SC2)cc1` [D, 3-(4-Chlorophenyl)-6-(4-methoxyphenyl)-7H-[1,2,4]triazolo[3,4-b][1,3,4]thiadiazine], the GI50 in experiment [1] came to 144 nM; in experiment [3], 21 nM; in experiment [6] it was 1500 nM; in experiment [8], 1500 nM; in experiment [9] it was 31 nM; in experiment [10] it was 42 nM. Halving of growth in [14] (GI50) required 2120 nM. For the same compound, the concentration for a half-maximal effect (EC50) in experiment [2] stood at 58 nM; in [4], 315 nM; in experiment [5] it was 82 nM; in experiment [7], 130 nM; in [11], 84 nM; in experiment [12] it was 142 nM. Besides, the EC50 in experiment [13] was 63 nM.

Consider `Cc1cccc(-c2nnc3n2N=C(c2ccc4c(c2)OCO4)CS3)c1` [Example T, 3-(3-Methylphenyl)-6-(3,4-methylenedioxyphenyl)-7H-[1,2,4]triazolo[3,4-b][1,3,4]thiadiazine], for which the GI50 is 375 nM in [1] and 314 nM in [10]. The EC50 in experiment [2] was determined as 261 nM; in experiment [4], 345 nM; in experiment [5], 243 nM; in experiment [7], 471 nM; in experiment [11], 221 nM; in experiment [12] it was 1230 nM. In experiment [13], the concentration giving a half-maximal response (EC50) came to 262 nM.

Take `COc1ccc(C2=Nn3c(nnc3-c3ccc(OC)c(OC)c3)SC2)cc1OC` [Example N1, 3-(3,4-Dimethoxyphenyl)-6-(3,4-dimethoxyphenyl)-7H-[1,2,4]triazolo[3,4-b][1,3,4]thiadiazine]: the GI50 was 2650 nM in experiment [1] and 1940 nM in experiment [10]. The concentration for a half-maximal effect (EC50) amounted to 556 nM in [2]; 2220 nM in [4]; 1310 nM in [5]; 2480 nM in experiment [7]; 570 nM in [11]; 2420 nM in [12]. In addition, the EC50 in [13] is 586 nM.
